From ChEMBL document CHEMBL1154103, “Bioactive conformation analysis of cyclic imides as protoporphyrinogen oxidase inhibitor by combining DFT calculations, QSAR and molecular dynamic simulations” (Bioorg Med Chem, 2009)

Target: T1, Protoporphyrinogen oxidase (Bacillus subtilis (strain 168), UniProt P32397)
T1 sequence (P32397 whole entry): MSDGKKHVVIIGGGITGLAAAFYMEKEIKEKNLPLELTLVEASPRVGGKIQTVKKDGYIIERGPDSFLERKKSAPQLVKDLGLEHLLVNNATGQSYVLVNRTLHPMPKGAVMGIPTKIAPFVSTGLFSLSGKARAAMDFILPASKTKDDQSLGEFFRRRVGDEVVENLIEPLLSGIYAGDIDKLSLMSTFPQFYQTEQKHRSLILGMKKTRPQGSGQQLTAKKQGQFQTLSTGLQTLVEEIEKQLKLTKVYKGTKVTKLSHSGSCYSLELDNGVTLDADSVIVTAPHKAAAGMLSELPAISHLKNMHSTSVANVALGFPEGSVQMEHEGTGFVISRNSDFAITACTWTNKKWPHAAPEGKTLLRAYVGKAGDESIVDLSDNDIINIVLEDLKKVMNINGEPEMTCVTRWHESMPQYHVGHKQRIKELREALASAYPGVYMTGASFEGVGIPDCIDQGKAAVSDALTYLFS
Test: Inhibition of Bacillus subtilis Protoporphyrinogen oxidase by capillary electrophoresis

| Compound | Ki [nM] |
| --- | --- |
| CCOC(=O)C(c1ccccc1)N1C(=O)C(C)Oc2cc(F)c(N3C(=O)C4=C(CCCC4)C3=O)cc21 (stereo not given) | 91.2 |
| CCOC(=O)C(C)N1C(=O)C(C)Oc2cc(F)c(N3C(=O)C4=C(CCCC4)C3=O)cc21 (stereo not given) | 110 |
| CCC(C(=O)OC)N1C(=O)COc2cc(F)c(N3C(=O)C4=C(CCCC4)C3=O)cc21 (stereo not given) | 8.13 |
| CC(C)(CCl)C(=O)Nc1cc(N2C(=O)C3=C(CCCC3)C2=O)c(F)cc1Cl | 871 |
| N#CCN1C(=O)COc2cc(F)c(N3C(=O)c4ccccc4C3=O)cc21 | 1020 |
| C#CCN1C(=O)COc2cc(F)c(N3C(=O)c4ccccc4C3=O)cc21 | 3310 |
| O=C(NC(=O)c1c(F)cccc1Cl)Nc1cc(N2C(=O)C3=C(CCCC3)C2=O)c(F)cc1Cl | 8.32 |
| COC(=O)C(C)N1C(=O)C(C)Oc2cc(F)c(N3C(=O)C4=C(CCCC4)C3=O)cc21 (stereo not given) | 49 |
| C#CCN1C(=O)COc2cc(F)c(N3C(=O)c4ccc(C)cc4C3=O)cc21 | 2820 |
| CCOC(=O)C(C)N1C(=O)COc2cc(F)c(N3C(=O)C4=C(CCCC4)C3=O)cc21 (stereo not given) | 120 |
| CC(C)N(C(=O)Nc1cc(N2C(=O)C3=C(CCCC3)C2=O)c(F)cc1Cl)C(C)C | 229 |
| O=C(Nc1ccc(Cl)cc1)Nc1cc(N2C(=O)C3=C(CCCC3)C2=O)c(F)cc1Cl | 28.2 |
| O=C(NC(=O)c1cccc(OC(F)(F)F)c1)Nc1cc(N2C(=O)C3=C(CCCC3)C2=O)c(F)cc1Cl | 33.9 |
| O=C(NC(=O)c1ccc(Cl)cc1Cl)Nc1cc(N2C(=O)C3=C(CCCC3)C2=O)c(F)cc1Cl | 26.9 |
| O=C(NC(=O)c1ccccc1)Nc1cc(N2C(=O)C3=C(CCCC3)C2=O)ccc1Cl | 6170 |
| COC(=O)CN1C(=O)C(C)Oc2cc(F)c(N3C(=O)C4=C(CCCC4)C3=O)cc21 (stereo not given) | 39.8 |
| C#CCN1C(=O)C(C)Oc2cc(F)c(N3C(=O)c4cccc(F)c4C3=O)cc21 (stereo not given) | 5010 |
| CCOC(=O)C(CC)N1C(=O)COc2cc(F)c(N3C(=O)C4=C(CCCC4)C3=O)cc21 (stereo not given) | 44.7 |
| CCOC(=O)CN1C(=O)C(C)Oc2cc(F)c(N3C(=O)C4=C(CCCC4)C3=O)cc21 (stereo not given) | 60.3 |
| CNC(=O)Nc1cc(N2C(=O)C3=C(CCCC3)C2=O)c(F)cc1Cl | 372 |
| O=C(Nc1cccc(C(F)(F)F)c1)Nc1cc(N2C(=O)C3=C(CCCC3)C2=O)c(F)cc1Cl | 25.1 |
| O=C(NC(=O)c1ccccc1)Nc1cc(N2C(=O)C3=C(CCCC3)C2=O)c(F)cc1Cl | 89.1 |
| CCCN(CCC)C(=O)Nc1cc(N2C(=O)C3=C(CCCC3)C2=O)ccc1Cl | 288 |
| O=C(NC(=O)c1c(Cl)cccc1Cl)Nc1cc(N2C(=O)C3=C(CCCC3)C2=O)c(F)cc1Cl | 12.9 |
| C#CCN1C(=O)C(C)Oc2cc(F)c(N3C(=O)c4ccc(C)cc4C3=O)cc21 (stereo not given) | 4790 |
